Reference: patent US9873667B2, “Arylsulfanyl compounds and compositions for delivering active agents” (EMISPHERE TECHNOLOGIES INC., priority 2006, dated 2018)

Tested on: Blood glucose levels
Experiment: Oral delivery of insulin with delivery agent compound; blood glucose by glucometer
Format: in vivo, male Sprague-Dawley rats
Conditions: insulin titration; Delivery Agent 200 mg/kg; Dose of Insulin 0.00 mg/kg
Description: Insulin stock solution (15 mg/ml) (Human zinc insulin, Calbiochem-Novabiochem Corp., La Jolla, Calif.) was prepared with deionized water. Oral dosing compositions containing 200 mg/kg of delivery agent compound and 0.5 mg/kg of insulin in aqueous solution were prepared with the delivery agent compound shown in Table 1 below. Either the sodium salt of the delivery agent compound was used or the free acid was converted to the sodium salt with one equivalent of sodium hydroxide.
The dosing solution was administered to fasted male Sprague-Dawley rats by oral gavage with an average weight of about 225-250 grams. Blood glucose levels were then determined by glucometer (One Touch Ultra®, LifeScan, Inc.) and compared to vehicle control (1 ml/kg of water). Samples were collected prior to dosing (time 0) and at 15, 30, 45 and 60 minutes after dosing. The % glucose reduction values in Table 1 are values found at the C minimum, and are an average % reduction with respect to the number of times the experiment was run for each delivery agent.
0.5 mg/kg of Insulin and 25-100 mg/kg of delivery agent compound (particular amount shown in Table 2 below) was administered to male Sprague-Dawley rats with an average weight of about 225-250 grams. The purpose of this test was to ascertain the dose response of the delivery agent compound. Glucose reduction was determined as set forth in connection with the data in Table 1.
Insulin Titrations were performed with Delivery Agent 29 in order to gauge the effect of varying dosages of insulin.

For `O=C(O)CCCSc1cccc(Cl)c1` [Compound 29, 4-(3-Chloro-phenylsulfanyl)-butyric acid], the “% Glucose Reduction” value was −6.8%.

Same assay, conditions: insulin titration; Delivery Agent 200 mg/kg; Dose of Insulin 0.25 mg/kg

For `O=C(O)CCCSc1cccc(Cl)c1` [Compound 29, 4-(3-Chloro-phenylsulfanyl)-butyric acid], the “% Glucose Reduction” value was −31.4%.

Same assay, conditions: insulin titration; Delivery Agent 200 mg/kg; Dose of Insulin 0.50 mg/kg

In the case of `O=C(O)CCCSc1cccc(Cl)c1` [Compound 29, 4-(3-Chloro-phenylsulfanyl)-butyric acid], the “% Glucose Reduction” value is reported as −30.8%.

Same assay, conditions: oral gavage; 200 mg/kg Delivery Agent Compound; 0.5 mg/kg Insulin; value at C minimum vs vehicle control

`COc1ccc(SCC(=O)O)cc1` [Compound 13, (4-Methoxy-phenylsulfanyl)-acetic acid] and `O=C(O)CSc1ccc(F)cc1` [Compound 55, (4-Fluoro-phenylsulfanyl)-acetic acid] are within error of each other in “% Glucose Reduction” value: −18.2 ± 17.4% for the first, −20.9 ± 17.5% for the second.

`COc1ccccc1SCCCCCCC(=O)O` [Compound 16, 7-(2-Methoxy-phenylsulfanyl)-heptanoic acid] and `COc1ccccc1SCCCCC(=O)O` [Compound 19, 5-(2-Methoxy-phenylsulfanyl)-pentanoic acid] are within error of each other in “% Glucose Reduction” value: −38.9 ± 32.7% for the first, −33.6 ± 32.4% for the second.

`COc1cccc(SCCCCCCCCCC(=O)O)c1` [Compound 20, 10-(3-Methoxy-phenylsulfanyl)-decanoic acid] and `COc1cccc(SCCCCCCCC(=O)O)c1` [Compound 22] are within error of each other in “% Glucose Reduction” value: −33.9 ± 41.8% for the first, −3.7 ± 9.4% for the second.

Compared with `COc1cccc(SCCCCCC(=O)O)c1` [Compound 21, 6-(3-Methoxy-phenylsulfanyl)-hexanoic acid], `COc1cccc(SCCCC(=O)O)c1` [Compound 27, 4-(3-Methoxy-phenylsulfanyl)-butyric acid] is lower in “% Glucose Reduction” value: −19.4 ± 6.6% for the first, −47.6 ± 17.4% for the second.

`O=C(O)CCCCSc1cccc(Cl)c1` [Compound 24, 5-(3-Chloro-phenylsulfanyl)-pentanoic acid] and `O=C(O)CCCCCSc1cccc(Cl)c1` [Compound 32, 6-(3-Chloro-phenylsulfanyl)-hexanoic acid] are within error of each other in “% Glucose Reduction” value: −10.0 ± 17.7% for the first, −15.2 ± 28.9% for the second.

`O=C(O)CCCCSc1ccccc1Cl` [Compound 25, 5-(2-Chloro-phenylsulfanyl)-pentanoic acid] and `O=C(O)CCSc1ccccc1Cl` [Compound 44, 3-(2-Chloro-phenylsulfanyl)-propionic acid] are within error of each other in “% Glucose Reduction” value: −16.0 ± 13.4% for the first, −7.8 ± 16.5% for the second.

`O=C(O)CSc1cc(Cl)ccc1Cl` [Compound 40, (2,5-dichloro-phenylsulfanyl)-acetic acid] and `O=C(O)CCCSc1cc(Cl)ccc1Cl` [Compound 50, 4-(2,5-dichloro-phenylsulfanyl)-butyric acid] are within error of each other in “% Glucose Reduction” value: −6.0 ± 17.5% for the first, −15.8 ± 10.6% for the second.

`O=C(O)CSc1ccc(Cl)c(Cl)c1` [Compound 42, (3,4-dichloro-phenylsulfanyl)-acetic acid] and `O=C(O)CCCSc1ccc(Cl)c(Cl)c1` [Compound 53, 4-(3,4-dichloro-phenylsulfanyl)-butyric acid] are within error of each other in “% Glucose Reduction” value: −22.1 ± 5.4% for the first, −14.8 ± 7.0% for the second.

`O=C(O)CCSc1cccc(Cl)c1` [Compound 45, 3-(3-Chloro-phenylsulfanyl)-propionic acid] and `O=C(O)CSc1cccc(O)c1` [Compound 46, (3-Hydroxy-phenylsulfanyl)-acetic acid] are within error of each other in “% Glucose Reduction” value: −6.5 ± 21.2% for the first, 0.3 ± 27.7% for the second.

Going from `O=C(O)CSc1cccc(F)c1` [Compound 51, (3-Fluoro-phenylsulfanyl)-acetic acid] to `O=C(O)CCCSc1ccc(F)cc1` [Compound 56], the “% Glucose Reduction” value rises from −24.9 ± 6.2% to −4.5 ± 11.1%.

`O=C(O)CCCSc1ccccc1F` [Compound 54, 4-(2-Fluoro-phenylsulfanyl)-butyric acid] and `O=C(O)CCCCCSc1ccc(F)cc1` [Compound 57, 6-(4-Fluoro-phenylsulfanyl)-hexanoic acid] are within error of each other in “% Glucose Reduction” value: −37.4 ± 26.0% for the first, −11.0 ± 15.7% for the second.

Tested on: not given
Experiment: not given
Conditions: not given

Compared with `Cc1ccc(C)c(SCCC(=O)O)c1` [Compound 9, 3-(2,5-Dimethyl-phenylsulfanyl)-propionic acid], `O=C(O)CCCSc1ccccc1O` [Compound 12, 4-(2-Hydroxy-phenylsulfanyl)-butyric acid] is lower in melting point: 100 to 102 °C for the first, 77 to 78 °C for the second.

With `COc1ccc(SCCCCCCCC(=O)O)cc1` [Compound 10, 8-(4-Methoxy-phenylsulfanyl)-octanoic acid] the melting point was 66 to 68 °C.
